Measured values: patent publication US20250002954A1, “Novel Compound, Use Thereof, and Method for Producing Same, and Compound-Containing Composition, Method for Producing 4-Trehalosamine, and Microorganism” (Microbial Chemistry Research Foundation, priority 2021, published 2025)

Assays:
[1] = tested on: human ovarian cancer cells OVK18 and human malignant melanoma cells Mewo; assay: LC3-II expression in combination with autophagy inhibitor (bafilomycin or chloroquine); type: cell-based; settings: 50 mM 4-trehalosamine, 50 μM IMCTA-C14 or 100 mM trehalose 14 hours, then 200 nM BM or 100 μM CQ 4 hours
Description: As with the test example 10-1, human ovarian cancer cells OVK18 (obtained from RIKEN BRC) and human malignant melanoma cells Mewo (JCRB0066) were each inoculated on a 12-well microplate at 8×10^4 cells/mL/well, and cultured in DMEM culture medium at 37° C. for 72 hours. After that, a half of the culture fluid in each well was taken and each compound was dissolved so that the final concentration is 50 mM 4-trehalosamine, 50 μM IMCTA-C14, or 100 mM trehalose. After dissolving it sufficiently, the cells were returned to the original well and treated at 37° C. for 14 hours. Untreated cells without addition of the compounds were used as control.
After that, each autophagy inhibitor was added so that the final concentration is 200 nM bafilomycin (BM) or 100 μM chloroquine (CQ), and the cells were cultured at 37° C. for 4 hours. A group with no inhibitor added was cultured in a similar way. After culture, they were turned into samples for western blotting in a similar manner to test example 10-1.
The western blotting was performed in a similar manner to test example 4 except that anti-LC3 antibody (manufactured by Cell Signaling Technology) was used at 1/2,000 dilution as the primary antibody in the method described in test example 4. The results for human ovarian cancer cells OVK18 are shown in FIG. 21A, and the results for human malignant melanoma cells Mewo are shown in FIG. 21B.
Also, the results (graphs) of image analysis on the results of western blotting via Image J (manufactured by National Institutes of Health) are shown in FIGS. 21A and 21B (n=10, mean±S.D.). The vertical axis of the graph indicates the value of the amount of expression (expression amount ratio) of LC3-II for the groups with the different compounds added when the amount of expression of LC3-II in the control (untreated cells) is 1. […]

[2] = tested on: Mycobacterium smegmatis mc^2 (ATCC 700084); assay: Evaluation of mycobacterium-protective activity in freeze-dried condition; type: cell-based; settings: for Numbers of live bacterial cells (relative numbers): Mycobacterium smegmatis freeze-dried with 6% aqueous solution (final concentration 3%), test sample 3 (FD) = 1
Description: Using test samples 1 to 5 containing mycobacterium prepared in the following manner, microorganism-protective activity with trehalose or 4-trehalosamine in a freeze-dried condition was evaluated.
Frozen stock of mycobacterium ([…] Mycobacterium smegmatis mc^2 (American Type Culture Collection (ATCC) 700084)) was inoculated in 10 mL of Middlebrook 7H9 culture medium (manufactured by Becton, Dickinson and Company) and cultured at 37° C. for 72 hours while shaking it at 220 rpm. After culture, it was centrifuged at 3,000×g for 5 minutes, washed once with 10 mL of water, and then suspended in 10 mL of water, thus obtaining mycobacterium suspension. 50 μL of water was added to and mixed with 50 μL of this mycobacterium suspension, and the mixture was left to stand at 4° C. for 20 hours, preparing control (NF).
After mycobacterium suspension was prepared in a similar manner to test sample 1, 50 μL of 6% aqueous solution of trehalose was added to and mixed with 50 µL of the mycobacterium suspension, and the mixture was frozen at −80° C. for 10 minutes. It was then freeze-dried for 20 hours with a freeze dryer (FLEXI-DRY, manufactured by FTS systems INC., Warminster) connected to a vacuum pump (P65D, manufactured by PHIL Sato Vac INC.), preparing freeze-dried product (TRH) of mycobacterium with TRH.
Freeze-dried product (4TA) of mycobacterium with 4TA was obtained in a similar manner to the preparation method of test sample 4 except that trehalose was changed to 4-trehalosamine (4TA) in the preparation method of test sample 4.
For test samples 1 and 2, serial suspensions were made by diluting them to 1/10 with water. […]
Wells in which the number of colonies was measurable were selected and the numbers (relative numbers) of live bacterial cells per well on test samples 1, 2, 4, and 5 when the number of live bacterial cells per well on test sample 3 (FD) was “1” were calculated in consideration of the dilution concentrations of those test samples.

| SMILES | expression of LC3-II in combination with bafilomycin (BM) or chloroquine (CQ) [1] | Numbers of live bacterial cells (relative numbers) [2] | protective effect on microorganisms, comparison ([2]; Mycobacterium smegmatis, freeze-dried) |
| --- | --- | --- | --- |
| N[C@H]1[C@H](O)[C@@H](O)[C@@H](O[C@H]2O[C@H](CO)[C@@H](O)[C@H](O)[C@H]2O)O[C@@H]1CO [4-trehalosamine] | increased expression of LC3-II | 100 | stronger than when trehalose was added |
| OC[C@H]1O[C@H](O[C@H]2O[C@H](CO)[C@@H](O)[C@H](O)[C@H]2O)[C@H](O)[C@@H](O)[C@@H]1O [trehalose, reference compound] | increased expression of LC3-II | 10 |  |
